One data set deals with gp120. As to conditions: cited from earlier work; for Kd: binding affinity for gp120.
In another data set the test system is HIV-1YU2 virus. To be noted: cited from earlier work; for Activation of Viral Infectivity: relative, CD4 negative Cf2Th-CCR5 cells; for activation of viral infectivity in CD4-negative cells (in words): summary of Table S1.
In data set [1] the test system is amphotropic murine leukemia virus (A-MLV). As to conditions: cells infected with A-MLV, cited from earlier work.
The next data set deals with gp120 coremin. Nature of the data set: SPR enhancement of gp120 coremin binding to 17b antibody. To be noted: 100 nM gp120, 0–100 µM compound, 17b captured on CM5 chip. Set-up: species or system HIV-1. From the text: A major undesired trait of NBD analogues as HIV-1 entry inhibitors is their capacity to activate viral infectivity in CD4-negative cells. To understand the underlying mechanisms of activation of HIV-1 infectivity in CD4-negative cells in the presence of select NBD analogues, we asked if the capacity of the four analogues to induce gp120 conformational change to the CD4-bound state might account for observed differences in viral infectivity. To address this question, we employed surface-plasmon resonance (SPR) and measured the capacity of NBD-557, (±)-AS-II-37, (±)-AS-I-261, (±)-MAE-II-167, and (±)-MAE-II-188 to increase the binding affinity of either the minimal core (coremin) or full-length gp120 for the 17b antibody, which recognizes gp120 in the CD4-bound conformation. We chose gp120 coremin over coree for SPR measurement because the coree is already in the CD4 bound conformation, and the effect of these small molecules on 17b-gp120 interaction is undetectable.
Figure 7 NBD analogue binding to gp120 enhances 17b-gp120 interaction. (A–D) 100 nM of gp120 coremin or full-length gp120 in the presence of 0–100 µM of NBD analogues was passed over 17b antibody immobilized on a CM5 chip. The binding of gp120 to 17b increased, in a concentration dependent manner, in response to treatment with the NBD analogues.
SPR experiments were performed using Biacore T100 (GE Healthcare) at 25°C. […] HBS-EP buffer (GE Healthcare) was used for the running buffer. A capture method was used to monitor the enhancement of gp120 binding to 17b by NBD-analogues. […] The running buffer contained 20 mM HEPES, pH 7.4, 150 mM NaCl, 0.05% P-20, and 5% DMSO.

A further data set relates to HIV-1 YU2 virus. As to conditions: cited from earlier work; for IC50: Cf2Th-CD4/CCR5 cells infected with HIV-1 YU2 virus.
The test system of data set [2] is laboratory-adapted HIV-1IIIB strain. Set-up: method as in Zhao et al. [18]. As to conditions: printed in the HIV-1 YU2 column, but determined in laboratory-adapted HIV-1IIIB strain; ref Zhao et al. [18]; cited from earlier work.
Data set [3] concerns virus expressing the S375W Env gp120. Details: method as in PMID 19000821. As to conditions: virus expressing S375W Env gp120 incubated with target cells; ref [21]; cited from earlier work.
Data set [4] deals with full-length gp120 variants possessing the Ser 375 to Trp mutation (S375W). Set-up: method as in PMID 19000821. To be noted: ref [21]; cited from earlier work.
The test system of data set [5] is Clade AKER2008 gp120 coree. Nature of the data set: SPR binding of gp120 coree to immobilized NBD-556 and sCD4. Set-up: species or system HIV-1. To be noted: ligand on CM5 chip, Met 375. An excerpt: (§1) Our structures reveal that Region I and II of the NBD congeners fit deeply within the Phe 43 cavity. As such, mutations that alter the shape of the cavity will also affect binding of the small molecules to gp120. One residue in close proximity to Region I and II of the NBD congeners is Ser 375 (vide supra). […] In several group O, N, or M HIV-1 viruses, Ser 375 of gp120 is replaced with either Met or His. […] However, the rate of Ser 375 to Trp mutation may be counterbalanced because the same mutation is also detrimental to the viruses by predisposing gp120 to adopt the CD4-bound conformation, a state prone to inactivation. Overall, the Phe 43 cavity remains an indispensable target for small molecule inhibitors.
(§2) Figure 8 NBD analogues are unable to bind Ser 375 variants of gp120s. […] Ser 375 was shown in the NBD-557 bound cavity. […] NBD-557 modeled into the Phe 43 cavity of clade A/E gp120 clashes with His 375. […] Met 375 modeled into NBD-557-bound YU2 gp120 clashes with NBD-557. […] NBD-557 clashes with Trp 375 in the Phe 43 cavity.

The subject of data set [6] is Clade A/E93TH057 gp120 coree. The description is as above. Details: species or system HIV-1. As to conditions: ligand on CM5 chip, His 375.
Source text: as §1, §2

Data set [7] has as its system Clade CRF34_1OUR2478P gp120 coree. The description is as above. Set-up: species or system HIV-1. As to conditions: ligand on CM5 chip, Trp 375.
Source text: as §1, §2

For the next data set, the system named is Cf2Th-CD4-CCR5 cells. Details: method as in PMID 22497421. To be noted: 100 µM; ref [24]; cited from earlier work.
Where [8] appears, read: HIV-1YU2, normalized to 2 (NBD-557), ref [24,27].
Setting [9] is: HIV-1YU2, normalized to N-(4-Chloro-3-Fluorophenyl)-N'-(1,2,2,6,6-Pentamethylpiperidin-4-yl)ethanediamide, ref [24,27].
The mark [10] stands for this setting: HIV-1YU2, normalized to 1 (NBD-556), ref Madani et al. [21].

Where two headings read alike, the source gives them in different places.

Consider `CC1(C)O[C@@H](CN)[C@H](CNC(=O)C(=O)Nc2ccc(Cl)c(F)c2)O1` (relative stereo) [AS-I-261], for which the Kd (as a rule, the free concentration of one partner at which half of the binding sites on the other are occupied at equilibrium, for simple one-to-one binding) on gp120 (ref [24,27]) is 2600 nM. The “Activation of Viral Infectivity” value with HIV-1YU2 virus (setting [8]) is 1.5. In the data set on HIV-1YU2 virus (ref [24,27]), the “activation of viral infectivity in CD4-negative cells (in words)” value is “activated viral infectivity”. Also, the IC50 (commonly the point on the concentration scale where inhibition reaches its midpoint) in data set [1] (ref [24,27]) is 94.4 µM; in the data set with HIV-1 YU2 virus (ref [24,27]), 76.6 µM. Moreover, the “enhancement of gp120 coremin binding to 17b” value (“enhancement … to 17b” for short) in the data set on gp120 coremin is “equally enhanced”.
For the compound `N=C(N)N[C@@H]1Cc2ccccc2[C@H]1NC(=O)C(=O)Nc1ccc(Cl)c(F)c1` [AWS-I-169], the equilibrium dissociation constant (Kd) at gp120 (ref [24,27]) is 300 nM. Further, the “Activation of Viral Infectivity” value in the data set with HIV-1YU2 virus (setting [9]) is listed as 0.0. Also, the IC50 in data set [1] (ref [24,27]) was above 100 µM; in the data set with HIV-1 YU2 virus (ref [24,27]) it was 21.3 µM.
With `O=C(NCC1CCN(C2CC2)C1)C(=O)Nc1ccc(Cl)c(F)c1` (centres unmarked) [MAE-II-188], the “Activation of Viral Infectivity” value in the data set on HIV-1YU2 virus (setting [8]) is 0.3. Besides, the IC50 in data set [1] (ref [24,27]) was above 100 µM. Also, the “enhancement … to 17b” value with gp120 coremin was “equally enhanced”.
In the case of `O=C(NCC1NCCc2ccccc21)C(=O)Nc1ccc(Cl)c(F)c1` (centres unmarked) [AS-II-37], the dissociation constant Kd at gp120 (ref [24,27]) was 1200 nM. Moreover, the “Activation of Viral Infectivity” value in the data set with HIV-1YU2 virus (setting [8]) is 0.6. Also, the IC50 is above 100 µM in data set [1] (ref [24,27]) and 50.4 µM with HIV-1 YU2 virus (ref [24,27]). For the same compound, the “enhancement … to 17b” value in the data set on gp120 coremin is listed as “somewhat reduced enhancement”.
Take `COc1ccnc2[nH]cc(C(=O)C(=O)N3CCN(C(=O)c4ccccc4)C[C@H]3C)c12` [BMS-806, reference compound]: the “enhancement … to 17b” value with gp120 coremin is “did not enhance”.
In the case of `CC1(C)CC(NC(=O)C(=O)Nc2ccc(Cl)c(F)c2)CC(C)(C)N1` [JRC-II-191], the “enhancement of binding affinity for YU2 gp120” value with gp120 (para-chloro, meta-fluoro aromatic ring, compared with NBD-556, ref [21], [27]) is 5 fold. Further, the “Activation of Viral Infectivity” value with HIV-1YU2 virus (setting [10]) is 1.9 ± 0.2. Further, the IC50 was above 100 µM in data set [1] (ref Madani et al. [21]) and 54.4 µM in the data set with HIV-1 YU2 virus (ref Madani et al. [21]). Moreover, the “inhibition of HIV-1YU2 infection of cells expressing CD4 and CCR5” value in the data set with HIV-1 YU2 virus (compared with NBD-556, ref [21], [27]) is given as “more potently than NBD-556”.
Turning to `N=C(N)NC[C@H]1Cc2ccccc2[C@@H]1NC(=O)C(=O)Nc1ccc(Cl)c(F)c1` [DMJ-II-121], at gp120 (ref [24,27]), the dissociation constant Kd is 110 nM. Also, the “Activation of Viral Infectivity” value with HIV-1YU2 virus (HIV-1YU2, normalized to 1 (NBD-556), ref [24,27]) is 0.0. Moreover, the IC50 in [1] (ref [24,27]) is above 100 µM; in the data set on HIV-1 YU2 virus (ref [24,27]) it was 2.3 µM.
In the case of `CC1(C)CC(NC(=O)C(=O)Nc2ccc(Br)cc2)CC(C)(C)N1` [NBD-557, reference compound], the dissociation constant Kd at gp120 (ref Madani et al. [21]) is 2200 nM. The half-inhibitory concentration (IC50) in [2] is 3.08 µM. For the same compound, in the data set on HIV-1YU2 virus (setting [10]), the “Activation of Viral Infectivity” value is 0.9 ± 0.4. Besides, in [3], the “enhancement of CD4-independent viral entry” value is “does not enhance”.
Consider `CC1(C)CC(NC(=O)C(=O)Nc2ccc(Cl)cc2)CC(C)(C)N1` [NBD-556], for which, in data set [4], the “binding to S375W full-length gp120” value is “inefficiently bind”. The “Activation of Viral Infectivity” value in the data set on HIV-1YU2 virus (setting [10]) was 1.0 ± 0.1. Further, the IC50 (in data set [1] (ref Madani et al. [21]); with HIV-1 YU2 virus (ref Madani et al. [21])) was above 100 µM in each case. The “binding of gp120 coree to immobilized ligand” value in data set [5] is “does not bind”; in [6], “does not show detectable binding”; in data set [7], “does not bind”.
In the case of `O=C(NC[C@@]12CCC[C@@H]1CNC2)C(=O)Nc1ccc(Cl)c(F)c1` (relative stereo) [MAE-II-167], the dissociation constant Kd on gp120 (ref [24,27]) is 3100 nM. Besides, the “Activation of Viral Infectivity” value in the data set with HIV-1YU2 virus (setting [8]) was 0.0. For the same compound, the IC50 in data set [1] (ref [24,27]) was 93.1 µM; in the data set with HIV-1 YU2 virus (ref [24,27]) it was 68.3 µM. The “enhancement … to 17b” value in the data set on gp120 coremin is on record as “equally enhanced”.
Consider `N=C(N)N[C@H]1Cc2ccccc2[C@@H]1NC(=O)C(=O)Nc1ccc(Cl)c(F)c1` [DMJ-I-228], for which the Kd on gp120 (ref [24,27]) is 250 nM. Further, the “Activation of Viral Infectivity” value with HIV-1YU2 virus (setting [9]) was 0.0. The “activation of viral infectivity in CD4-negative cells (in words)” value with HIV-1YU2 virus (ref [24,27]) is reported as “did not”. Besides, the IC50 was above 100 µM in [1] (ref [24,27]) and 22.9 µM in the data set on HIV-1 YU2 virus (ref [24,27]). For the same compound, the “effect on cell growth dynamics (cytotoxicity)” value in the data set with Cf2Th-CD4-CCR5 cells is given as “does not alter the cell growth dynamics”.

Source of the values: article PMC3904841, “Crystal Structures of HIV-1 gp120 Envelope Glycoprotein in Complex with NBD Analogues That Target the CD4-Binding Site” (PLoS ONE, 2014).
